Row | SMILES | melting point [°C]
1 | O=S1(=O)c2cccc3cccc(c23)N1CCCN1CC=C(c2ccccc2)CC1 | 88
2 | CCCC1=NN(c2cccc(S(=O)(=O)O)c2)C(=O)C1=CNc1ccccc1CC | 259
3 | CCC(=O)OC(C#N)C(C#N)c1cccc(OC)c1 (stereo not drawn) | 73
4 | O=Cc1ccc(-c2ccccc2-c2nnn[nH]2)cc1 | 189 to 190
5 | CC1(O)CCN(Cc2ccc(C#CC(=O)Nc3ccc(-c4ccc(Cl)cc4)cc3)cc2)CC1 | 192 to 193
6 | CC(C)C1N(CC(N)=O)C(=O)CN1C(=O)CCl (stereo not drawn) | 163
7 | CC1(C)Oc2ccc(S(C)(=O)=O)cc2[C@@H](N2CCSC2=NC#N)[C@@H]1O (relative stereo) | 304 to 307
8 | C(=Cc1ccccc1)C=Nc1ccc(Cc2ccc(N=CC=Cc3ccccc3)cc2)cc1 | 162 to 164
9 | CC1(C)Sc2ccccc2C(Cl)=C1C=O | 49 to 52
10 | COC(=O)c1ccc(C(=O)NS(=O)(=O)c2ccc(OC(F)(F)F)cc2)cn1 | 221 to 223
11 | O=C1[C@H]2CCC[C@H]2Nc2ccccc2N1Cc1ccc2ccccc2c1 (relative stereo) | 148
12 | COC(=O)C12COc3cc(C(F)(F)F)ccc3C1=NN(C(=O)Nc1ccc(C(F)(F)F)cn1)C2 (stereo not drawn) | 194 to 195
13 | Clc1ccc(OCc2cccs2)cc1 | 45 to 47
14 | N#Cc1cc(N)ccc1N1CCC(N2CCC(O)CC2)CC1 | 175
15 | O=C(NC(Cc1ccccc1)C(=O)O)c1ccc(-c2ccc(OCc3ccccc3)cc2)nc1 (stereo not drawn) | 240
16 | O=C(CCCCCCCCCCN1CCN(c2ccccc2)CC1)Nc1ccc(O)cc1 | 160 to 162
17 | CCOC(=O)c1ccc(NC(=O)C=C(c2ccc(C)cc2)c2ccc(C)cc2)cc1 | 151 to 154
18 | Cc1cccc(COc2cccnc2N)c1F | 115 to 118
19 | COc1cc2c(cc1OC)[C@@H]1CN(C)CC[C@@H]1N=C2c1ccc([N+](=O)[O-])cc1 (relative stereo) | 194 to 195
20 | C[C@@H](S[C@H]1CC[C@H](/C=C/C=C/c2ccc(C(F)(F)F)cc2)CC1)[C@](O)(Cn1cncn1)c1ccc(F)cc1F | 74 to 76
21 | COc1ccc(N2CCOCC2)c2sc(-c3nc4ccc(N(C)CC5CCOCC5)nc4[nH]3)nc12 | 190 to 195

Row | SMILES | melting point [°C]
22 | O=c1cc(-c2ccncc2)nc2n1CCN2CCCc1c[nH]c2ccccc12 | 218 to 220
23 | O=C(Cl)c1cc(C(=O)Cl)[nH]n1 | 89 to 91
24 | O=C1C(=Cc2ccco2)CCc2cc(OCCn3ccnc3)ccc21 | 109 to 110
25 | N#CCCC(=O)c1ccccc1 | 69
26 | CCCCCCSc1ccc(SCCCCCC)c(C(=O)O)n1 | 40 to 42
27 | CCCOc1ccc(S(=O)(=O)N2CCOCC2)cc1-c1nc2c([nH]1)c1nncn1c(=O)n2CCC | 169
28 | COc1ccc2cc([C@H](C)C(=O)OCC(=O)N(C)CC(=O)OCCCO)ccc2c1 | 41 to 43
29 | C[C@H]1CCCN(CCCOc2ccc(-c3nc4cccnc4c(=O)n3C)cc2)C1 | 83.5 to 88.5
30 | CC(C)c1ccc(N(Cc2cnn(C3CCCC3)c2)C(=O)C2CCCc3c(O)cccc32)cc1 (stereo not drawn) | 173
31 | CCCCCCCCCCCCc1cc2ccc(C(=O)OCC)cc2[nH]1 | 83 to 86
32 | CC1C(=O)N(c2ccccc2)N=C1N (stereo not drawn) | 147
33 | Cn1c2c(c3cccc(F)c31)C(=O)CCC2 | 126 to 128
34 | CCCCn1cnnc1SCC(=O)c1ccc(OC)cc1 | 79 to 82
35 | CC(C)C1(C)N=C(c2ccc(O)cn2)NC1=O (stereo not drawn) | 252 to 254
36 | O=C(O)CC1(C(=O)O)CCc2cc3ccccc3n2C1 (stereo not drawn) | 185 to 188
37 | CCCCCCOc1cc(N(CC)CC)ccc1C1(c2c(C)n(CC)c3ccccc23)OC(=O)c2cccnc21 (stereo not drawn) | 154 to 156
38 | COc1cc(OC)c(C=O)cc1I | 170 to 172
39 | CCN(CC)CCCC1CCCN(C(=O)N2c3ccccc3NC(=O)c3cccnc32)C1 (stereo not drawn) | 123 to 125
40 | CC(=O)c1cc([N+](=O)[O-])c(F)cc1Cl | 66 to 68
41 | COC(=O)c1cc(Cl)sc1S(=O)(=O)Cl | 95 to 97
42 | N#CCCCCCCn1c(-c2ccccc2)c(-c2ccccc2)n(-c2ccccc2)c1=O | 100 to 101

Row | SMILES | melting point [°C]
43 | Nc1c(F)c(F)c(F)c(F)c1NC(=S)Nc1c(Cl)cccc1Cl | > 300
44 | CC(=O)NC1(c2ccc(C(C)N3CCN(c4ncccn4)CC3)cc2)CC1 (stereo not drawn) | 124 to 125
45 | Nc1ccc2sc(C=Cc3ccccc3)nc2c1 | 154 to 156
46 | COc1cnc(OC)n2nc(N)nc12 | 185 to 186
47 | O=C(C=NO)Nc1ccccc1F | 120
48 | CCOC(=O)c1cc2c(cn1)[nH]c1ccc([N+](=O)[O-])cc12 | 320 to 325
49 | COC(=O)C(=C1SCCCN1C(=O)OC)[N+](=O)[O-] | 71 to 72
50 | O=C(N[C@H]1CC[C@@H](O)C1)OCc1ccccc1 (relative stereo) | 62 to 63
51 | CC(=O)N[C@@H](CO)C(=O)NCc1ccccc1 | 147 to 148
52 | Cn1c(COc2ccc(CC3SC(=O)NC3=O)cc2)nc2ccc(Oc3cccc(NC(=O)Nc4ccc(C(F)(F)F)cc4)c3)cc21 (stereo not drawn) | 192 to 194
53 | COc1ccc(NCCCOc2ccc3ccccc3c2)cc1 | 110
54 | CCOC(=O)Cc1ccc(NC(=O)C(COS(C)(=O)=O)NS(=O)(=O)c2ccc(I)cc2)cc1 (racemic) | 160 to 162
55 | CC(=O)N1CCN=C1Nc1cc(C)nn1-c1cccc(C(F)(F)F)c1 | 173 to 175
56 | CC1CC2=CC(=O)CCC2C2CCC3(C)C(O)CCC3C12 (stereo not drawn) | 144 to 146
57 | CCCCCCCCCCCCOP(=O)(CC(=O)Nc1c(C(C)C)cccc1C(C)C)c1ccccc1 (stereo not drawn) | 66 to 68
58 | O=C1CCC(Nc2nccc(-n3ncc4ccccc43)n2)CC1 | 212 to 213
59 | CC1(C)CCC(C)(C)c2cc(C(O)C(=O)Nc3ccc(C(=O)O)cc3)ccc21 (stereo not drawn) | 220 to 221
60 | FC(F)(F)CN1CCOC(CN2c3ccccc3C=Cc3ccccc32)C1 (stereo not drawn) | 97 to 98
61 | O=C(O)[C@@H]1C[C@@H](O)CN1C(=O)OCc1ccccc1 | 106 to 107

Further lines, results first:

Row | melting point [°C] | SMILES
62 | 137 to 139 | CC(C)C1COCc2nc3c(N)nc4cc(OCC(=O)N5CCOCC5)ccc4c3n21 (stereo not drawn)
63 | 254 to 255 | Cc1cc(Cl)cc(C(=O)c2[nH]c(=O)[nH]c(=O)c2C(C)C)c1
64 | 123 to 124 | CCc1c(OCc2ccccc2)nc(OCc2ccccc2)nc1C(=O)c1cc(C)cc(C#N)c1
65 | 108 to 111 | COC(=O)C(C)(C)S(=O)(=O)N1CCC(c2ccc(-c3cccc(OCCO)n3)c(C)c2)CC1
66 | 218 to 220 | CCc1nc2c(N)nc3cc(OCCc4c[nH]c5ccccc45)ccc3c2s1
67 | 182 to 183 | CC(C)(Cc1ccccc1)C(NC(=O)c1ccc(Cl)cc1)NC(=NC#N)Nc1cccnc1 (stereo not drawn)
68 | 114 to 116 | CCOC(=O)C(C)(Cc1ccc(O)c(OC)c1)NN (stereo not drawn)
69 | 80 to 82 | COC(=O)c1cc(N(C)C)c(C(C)(C)C)c(N(C)C)c1
70 | 176 to 178 | NCCn1nc2c3c(c(Cl)ccc31)C(=O)c1c(OCc3ccccc3)ccc(OCc3ccccc3)c1-2
71 | 119 to 121 | COC(=O)c1ccc(OCc2ccc(Cl)cc2)cc1O
72 | 57 to 59 | CC(C)(C)C(=O)Nc1ccc(Br)cn1
73 | 120 to 155 | Cc1cc(C2=CO[C@@](c3cc(Cl)cc(Cl)c3)(C(F)(F)F)C2)ccc1C(=O)NCC(=O)NCC(F)(F)F
74 | 84 to 86 | CCCCCc1cc(-c2ccc(F)cc2C(C)O)c(C(C)C)nc1C(C)C (stereo not drawn)
75 | 305 to 307 | Cc1ccc(CNc2cccc3c2C(=O)N(C2CCC(=O)NC2=O)C3=O)o1 (stereo not drawn)
76 | 142 to 143 | C[C@@H]1OC(=O)[C@@H](NC(=O)OC(C)(C)C)COC[C@H](Cc2ccccc2)[C@H]1OCCC(=O)N(C)C
77 | 206 | COc1cc(OC)c(OC)cc1CN[C@@H](C(=O)O)[C@H](O)[C@H](Cc1ccccc1)NC(=O)OC(C)(C)C
78 | 180 | Cc1cc(C)c2nc(NC3CCN(CCCS(N)(=O)=O)CC3)n(Cc3nc(C)ccc3O)c2c1
79 | 241 to 242 | CCCCC1N=C(Cl)/C(=C2\C(=O)Nc3ccccc32)N1Cc1ccc(C(=O)O)cc1 (stereo not drawn)
80 | 132 to 135 | CC(C)(C)OC(=O)/C(=C/c1ccccc1)C(=O)c1cc2ccccc2cc1O

Row | melting point [°C] | SMILES
81 | 133 to 136 | CC(C)(C)c1cc(Cc2nc3cc(Cl)cc(Br)c3o2)cc(C(C)(C)C)c1O
82 | 110 to 112 | CC(Oc1c(Br)cc(Br)cc1Br)c1cc(Br)c(Br)cc1Br (stereo not drawn)
83 | 139 to 140 | CC(=O)Nc1nc(CCc2ccc(NC3=NCCN3)cc2)c(Cc2ccc(S(C)(=O)=O)cc2)s1
84 | 72 to 74 | Cc1nc(Cl)c2nnn(-c3ccc(C(C)C)cc3Br)c2n1
85 | 185 to 187 | CCNC(=O)c1cc(NC(=O)c2ccccc2)ccc1[Si](C)(C)C
86 | 172 to 174 | Oc1cccc2nc(Cc3ccccc3)[nH]c12
87 | > 250 | N#Cc1cccc(C2=Nc3cc(O)c(-c4ccccc4F)cc3NC(=O)C2)c1
88 | 143 to 145 | CN1c2ccccc2N(C(=O)CNC(C)(C)C)c2ccccc2S1(=O)=O
89 | 162 to 163 | Cc1c(NC(=O)CC(C)(C)C)cc2c(c1C)OC(C)(C)C2c1cccc(C(C)C)c1 (stereo not drawn)
90 | 123 to 125 | O=S(=O)(Nc1ccc2c(OCc3ccc(Br)cc3F)cccc2c1)C(F)(F)F
91 | 170 to 171 | COc1ccc2c(c1)c(CC(=O)N(C)O)c(C)n2C(=O)c1ccc(Cl)cc1
92 | 120 to 121 | COc1ccc2c(Cl)c(C(=O)Cl)sc2c1
93 | 290 | Nc1nc2ccc(Cl)cc2nc1N
94 | 275 to 280 | O=c1oc(-c2ccccc2)cc(O)c1Sc1ccccc1Cl
95 | 95 to 96 | CCOC(=O)/C=C/c1nc(COc2ccc(COc3nn(-c4ccccc4)cc3/C=C\c3csc(CC)n3)cc2OC)c(C)o1
96 | 103 to 105 | COc1cccc(OCC(O)c2cccc(OCc3ccc4ccccc4n3)c2)c1 (stereo not drawn)
97 | 78 to 86 | COc1ccc(N=Cc2cc(OC)c(OC)c(OC)c2)cc1
98 | > 250 | COc1cc2cc(C(=O)O)cc(-c3ccnc(Cl)c3)c2cc1OC
